pEC50, pIC50, pKd: −log10 of the molar value. “Also recorded” adds a separate entry of the source.
Key:
[1] = target: T1, full length MLKL (Homo sapiens, UniProt Q8NB16); assay: KINOMEscan ATP-competitive probe displacement (competition binding) assay, MLKL; conditions: for pKd: average of duplicates
T1 construct: purchased DiscoverX (KINOMEscan service); host or cells: HEK-293
T1 sequence (Q8NB16 1-471): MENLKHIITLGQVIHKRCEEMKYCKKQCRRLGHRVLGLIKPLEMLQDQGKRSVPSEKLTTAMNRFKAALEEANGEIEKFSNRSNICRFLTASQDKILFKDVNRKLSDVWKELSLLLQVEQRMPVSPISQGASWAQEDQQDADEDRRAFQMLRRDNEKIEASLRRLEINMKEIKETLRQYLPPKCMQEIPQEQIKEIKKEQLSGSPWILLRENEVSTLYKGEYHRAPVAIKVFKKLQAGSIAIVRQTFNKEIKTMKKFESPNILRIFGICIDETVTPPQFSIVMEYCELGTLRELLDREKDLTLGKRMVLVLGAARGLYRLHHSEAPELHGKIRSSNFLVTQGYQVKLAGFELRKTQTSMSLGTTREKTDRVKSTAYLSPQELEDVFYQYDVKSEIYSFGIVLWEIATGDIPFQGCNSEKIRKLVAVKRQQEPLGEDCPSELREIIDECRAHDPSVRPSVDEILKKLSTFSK
Method: Compound binding constants (KDs) were determined at DiscoverX using their KINOMEscan assay platform. […] Briefly, full length MLKL was expressed in HEK-293 cells as a fusion with an NFκB DNA binding domain and subsequently tagged with a qPCR detection amplicon via interaction with NFκB. […] Twenty microliters of binding reactions were carried out in 384-well polypropylene plates for 1 hour at room temperature. Beads were subsequently washed and resuspended in elution buffer for 30 minutes at room temperature with shaking. The concentration of MLKL in the eluates was measured by qPCR and compound binding constants were calculated using a standard dose-response curve.
(§1) A similar approach was used to measure binding affinities for RIPK1 and RIPK3 kinase domains.

[2] = target: T2, RIPK1 kinase domain (Homo sapiens, UniProt Q13546); assay: ATP-competitive probe displacement assay, RIPK1; assay type: binding; conditions: for weaker potency to RIPK1 relative to MLKL: RIPK1 KD versus MLKL KD; for pKd: average of duplicates
T2 construct: purchased DiscoverX
T2 sequence (Q13546 17-289 limits assumed): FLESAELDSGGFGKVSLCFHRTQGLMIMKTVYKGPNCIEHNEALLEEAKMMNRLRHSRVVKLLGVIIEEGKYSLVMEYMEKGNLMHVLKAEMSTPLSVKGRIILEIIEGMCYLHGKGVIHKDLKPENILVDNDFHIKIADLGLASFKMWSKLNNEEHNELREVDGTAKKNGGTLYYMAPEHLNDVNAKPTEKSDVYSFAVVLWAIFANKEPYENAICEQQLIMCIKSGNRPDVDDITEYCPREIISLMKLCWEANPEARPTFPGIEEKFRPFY
Method: (§2) Compound binding constants (KDs) were determined at DiscoverX using their KINOMEscan assay platform. This competition binding assay was previously described in Karaman et al. (2008)[18]. Briefly, full length MLKL was expressed in HEK-293 cells as a fusion with an NFκB DNA binding domain and subsequently tagged with a qPCR detection amplicon via interaction with NFκB. […] Twenty microliters of binding reactions were carried out in 384-well polypropylene plates for 1 hour at room temperature. Beads were subsequently washed and resuspended in elution buffer for 30 minutes at room temperature with shaking. The concentration of MLKL in the eluates was measured by qPCR and compound binding constants were calculated using a standard dose-response curve.
as §1

[3] = target: T3, kinase domain of RIPK1 (Homo sapiens, UniProt Q13546); assay: Differential scanning fluorimetry (thermal shift), RIPK1 kinase domain; assay type: binding; conditions: 10 μM compound, 1 μM protein, average of triplicates
T3 construct: The kinase domain of RIPK1; made in house
T3 sequence (Q13546 17-289 limits assumed): T2 sequence (Q13546 17-289 limits assumed)
Method: (§3) To measure the thermal stabilization of the proteins upon compound binding we employed differential scanning fluorimetry (DSF). The kinase domain of RIPK1 and the N-terminal domain HSP90α were expressed and purified as previously described. The pseudokinase MLKL-1, RIPK1 and Hsp90 were melted at 1μM final concentrations in 25mM HEPES pH 8.0, 250mM NaCl and 2.5mM DTT. Compounds were added to a final concentration of 10 μ M with a final DMSO concentration of 5%. The complexes were incubated on ice for 30 minutes. Protein Thermal Shift dye (Life Technologies) was added to 1X. The fluorescence intensities were measured using a Quantstudio real-time PCR system (Life Technologies) with excitation at 470 nm and emission at 586 nm. The samples, measured in triplicate, were heated from 25 to 85°C with a heating rate of […].

[4] = target: T4, pseudokinase MLKL-1 (Homo sapiens, UniProt Q8NB16); assay: Differential scanning fluorimetry (thermal shift), MLKL pseudokinase domain; assay type: binding; conditions: 10 μM compound, 1 μM protein, average of triplicates; read-out: MLKL Pseudo-kinase thermal shift at 10 μM
T4 construct: sub-cloning residues 191 to 471 of the pseudokinase domain of human MLKL cDNA; His6 (thrombin cleavable) (N); made in house; host or cells: Escherichia coli BL21 (DE3)
T4 sequence (Q8NB16 191-471): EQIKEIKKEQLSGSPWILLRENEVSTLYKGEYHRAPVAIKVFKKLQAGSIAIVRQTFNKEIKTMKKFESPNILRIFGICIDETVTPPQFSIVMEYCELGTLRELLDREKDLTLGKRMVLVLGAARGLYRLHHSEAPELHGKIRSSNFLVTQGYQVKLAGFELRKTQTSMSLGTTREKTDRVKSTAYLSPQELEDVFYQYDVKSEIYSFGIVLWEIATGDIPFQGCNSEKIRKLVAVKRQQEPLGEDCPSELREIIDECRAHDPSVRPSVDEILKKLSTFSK
Source text: MLKL-1 was constructed by sub-cloning residues 191 to 471 of the pseudokinase domain of human MLKL cDNA into a pET15b vector with a thrombin cleavable N-terminal six histidine fusion tag (His-MLKL-1). MLKL-2 had the same protein boundaries and fusion tag system as MLKL-1 but the dual mutations E366A and K367A were introduced using site directed mutagenesis and was expressed in the same vector (His-MLKL-2).
as §3

[5] = test system: FADD (-/-) Jurkat cells; assay: Necroptosis assay: rescue from TNF-α induced cell death; assay type: cell-based; conditions: FADD deficient Jurkat cells; for pIC50: TNF-α 15 ng/ml overnight, average of duplicates, read-out: Necroptosis cell IC50
Method: Necroptosis assays were performed at Charles River Laboratories (United Kingdom) and at Biogen. […] On the day of the experiment, cells were counted using Nexcelom Bioscience Cell Meter Vision and pelleted by centrifugation. Cell pellets were resuspended in fresh medium at 500,000 cells per mL and transferred to assay-ready compound plates prepared in 384-well white TC plates (Greiner #781080) at 20μl cells per well. Cells and compound were incubated at room temperature for 30 minutes followed by +/- stimulation with 15ng/ml TNF-α (Cell signalling Technologies #8902LF) overnight at 37°C. In the morning, plates were equilibrated to room temperature for 30 minutes and 25μl of CellTiter-Glow (CellTiter-Glo 2.0 Assay, Promega # G9243) diluted 1:4 in PBS was added to each well and allowed to incubate for 10 minutes at room temperature. Luminescence was read on an Envision plate reader (Perkin Elmer).
TNF-α added to these cells induces necroptosis or cell death. The term “Rescue” refers to the ability of a compound to prevent loss of cell viability in the presence of TNF. Definitions of the presence or absence of compound or TNF stimulation in the wells that were used to calculate degree of rescue or viability is defined in Table 1.
100% percent rescue is defined as the value of the “no TNF” wells minus the value of wells treated with “TNF”.
Percent Rescue is then the ratio of the intensity value of the experimental “well” minus the value of “TNF” treated wells divided by the overall difference between the value of “no TNF” treated wells and the value of “TNF” treated wells.
%rescue=((well - TNF)/(no TNF - TNF))x100

[6] = test system: RIPK3 phosphorylation of MLKL in 293T cells; assay: MLKL phosphorylation assay (MSD), RIPK3-dependent phospho Ser358; assay type: cell-based, human; conditions: 293T cells with GFP-MLKL and RIPK3-mCherry, 30 min compound, normalized to DMSO
Method: The cDNA clones of human MLKL (RC213152) and human RIPK3 (RC209549) were purchased from Origene. To generate GFP-MLKL and RIPK3-mCherry, coding sequences of the corresponding cDNA sequences were PCR amplified and cloned into Biogen’s mammalian expression vector.
293T cells grown in 10 cm plates were transfected with GFP-MLKL alone or both GFP-MLKL and RIPK3-mCherry plasmids. After 24 hours, cells were harvested and replated into poly D lysine coated 96W plate with 20,000 cells/ml. Four hours later, cells were treated with MLKL compounds for 30 min and incubated at 37°C. Thirty minutes later, the media was removed and cells were lysed in 150μl of Cell lysis buffer (Cell Signaling, MA) containing both protease and phosphatase inhibitors. The lysates were transferred to 96 well MSD plates (Meso Scale Discovery, MD) that were precoated with anti-mouse MLKL antibody H00197259-M02, 3B2, Novus Biologicals, CO), and incubated overnight at 4°C. After washing the plates three times with 1x MSD wash buffer (50mM TRIS-HCl, 150mM NaCl, 0.02% Tween 20, pH7.5), 100 μl of 0.5μg/ml of rabbit-anti-MLKL phospho Ser358 (Abcam AB187091) was added to each well. The plates were incubated for 2 hours at room temperature. After three washes with MSD wash buffer, 100 μ l of 0.5ug/ml of SULFO-tag labeled anti-rabbit IgG was added to each well and incubated for 1 hour at room temperature. After three washes, 1x Read bufferT (Meso Scale Discovery, MD) was added and the electrochemiluminescence (ECL) was measured with a MSD Sector Imager 600.

[7] = test system: FADD (-/-) Jurkat cells; assay: Viability experiment in the absence of TNF; assay type: cell-based; conditions: FADD deficient Jurkat cells, no TNF, Fig 3F
Method: Necroptosis assays were performed at Charles River Laboratories (United Kingdom) and at Biogen. […] On the day of the experiment, cells were counted using Nexcelom Bioscience Cell Meter Vision and pelleted by centrifugation. Cell pellets were resuspended in fresh medium at 500,000 cells per mL and transferred to assay-ready compound plates prepared in 384-well white TC plates (Greiner #781080) at 20μl cells per well. Cells and compound were incubated at room temperature for 30 minutes followed by +/- stimulation with 15ng/ml TNF-α (Cell signalling Technologies #8902LF) overnight at 37°C. In the morning, plates were equilibrated to room temperature for 30 minutes and 25μl of CellTiter-Glow (CellTiter-Glo 2.0 Assay, Promega # G9243) diluted 1:4 in PBS was added to each well and allowed to incubate for 10 minutes at room temperature. Luminescence was read on an Envision plate reader (Perkin Elmer). Percent viability values are calculated from separate dose response experiments identical to the percent rescue experiment except that no TNF is added to the cells. This assay is intended to identify compounds that not only don’t rescue, but are toxic themselves. 100% Viability is defined as the intensity value of the “no TNF” wells, cell treated with neither compound nor TNF. […]

[8] = target: T5, RIPK3 kinase domain (Homo sapiens, UniProt Q9Y572); assay: ATP-competitive probe displacement assay, RIPK3; assay type: binding
T5 construct: purchased DiscoverX
T5 sequence (Q9Y572 21-287 limits assumed): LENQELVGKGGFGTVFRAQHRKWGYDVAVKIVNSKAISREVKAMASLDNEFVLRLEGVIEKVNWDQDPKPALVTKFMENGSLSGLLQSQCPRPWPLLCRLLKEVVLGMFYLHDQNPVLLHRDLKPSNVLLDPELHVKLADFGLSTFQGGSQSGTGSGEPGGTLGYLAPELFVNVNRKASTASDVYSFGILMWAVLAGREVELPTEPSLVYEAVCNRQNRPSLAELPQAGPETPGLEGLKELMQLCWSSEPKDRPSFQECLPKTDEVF
Method: as §2, §1

## CN(c1ccc(N)cc1)c1ccnc(Nc2cccc(S(N)(=O)=O)c2)n1 [cpd 3]
[1]
  pKd: 6.06
[2]
  weaker potency to RIPK1 relative to MLKL: at least 10 fold
  pKd: < 5.00
[3]
  ΔTm at 10 µM: 0.31 °C
[4]
  ΔTm at 10 µM: 1.57 °C
[5]; Homo sapiens
  pIC50: < 4.40

## CC(C)S(=O)(=O)c1ccc2nccc(Nc3ccc4scnc4c3)c2c1 [GSK872]
[6]
  effect on RIPK3-dependent phosphorylation of MLKL (phospho Ser358, in words): completely inhibited; also recorded: inhibits phosphorylation of MLKL

## C[C@@H](Oc1cc(-c2cnn(C3CCNCC3)c2)cnc1N)c1c(Cl)ccc(F)c1Cl [Crizontinib, reference compound]
[3]
  ΔTm at 10 µM: 0.75 °C
[4]
  ΔTm at 10 µM: 5.63 °C
[5]; dose-response, Fig 3
  rescue of cells from necroptosis (in words): does not rescue cells from necroptosis
[5]; Homo sapiens
  pIC50: < 4.40
[6]
  effect on RIPK3-dependent phosphorylation of MLKL (phospho Ser358, in words): does not impact its phosphorylation

## CN1C(=O)C(Cc2c[nH]c3ccccc23)NC1=S (stereo not shown) [Nec1s, Necrostatin, reference compound]
[5]; Homo sapiens, TNF stimulation
  pEC50: 6.30
[7]
  effect on cell viability in the absence of TNF stimulation (in words): does not effect cell viability

## CC(=O)Nc1ccc(N(C)c2ccnc(Nc3cccc(S(N)(=O)=O)c3)n2)cc1 [cpd 2]
[1]
  pKd: 6.11
[2]
  weaker potency to RIPK1 relative to MLKL: at least 10 fold
  pKd: < 5.00
[3]
  ΔTm at 10 µM: 0 °C
[4]
  ΔTm at 10 µM: 2.93 °C
[5]; Homo sapiens
  pIC50: < 4.40

## COc1nccnc1NS(=O)(=O)c1ccc(NC(=O)/C=C/c2ccc([N+](=O)[O-])s2)cc1 [NSA, Necrosulfonamide, reference compound]
[1]; data not shown
  displacement of the ATP probe from MLKL (in words): not to displace the ATP probe
[2]
  displacement of the ATP probe from / binding to RIPK1 (in words): not to displace the ATP probe
  pKd: < 4.52
[8]
  displacement of the ATP probe from / binding to RIPK3 (in words): not to displace the ATP probe
[8]; average of duplicates
  pKd: < 4.52
[3]
  ΔTm at 10 µM: 0.15 °C
[4]
  ΔTm at 10 µM: 0.67 °C
[5]; Homo sapiens
  pIC50: 6.70
